In patent EP0705601B1, “Anthraquinones containing solutions for parenteral administration” (LOMAPHARM Rudolf Lohmann GmbH KG Pharmazeutische Fabrik, priority 1994, dated 1996):
Read-outs that look alike come from different tables or passages of the source.

Tests used:
[1] = man; D. Lorenz et al. 1985; cited from earlier work
[2] = water, Raumtemperatur, cited from earlier work
[3] = Increase of solubility with the solubilisers of the invention relative to purely aqueous phase; assay type: physicochemical; settings: fold increase versus solubility in purely aqueous phase, with solubilisers I-III
From the text: Überraschenderweise wurde nun gefunden, daß die Löslichkeit der Anthrachinone durch den Einsatz von mindestens einem Lösungsvermittler ausgewählt aus • I. Polyethylenglykol-660-12-Hydroxystearat • II. Tetrahydrofurfurylalkoholpolyethylenglykolether • III. Wasserlösliche Beta- und Gamma-Cyclodextrinderivate, allein oder in Kombination mit anderen, physiologisch geeigneten, nichtwäßrigen Lösungsmitteln bzw. Lösungsvermittlern um mehr als das Hundertfache ihrer Löslichkeit in rein wäßriger Phase erhöht werden kann.

O=C1c2ccccc2C(=O)c2c1ccc(O)c2O [Alizarin]
Halbwertzeit [1]: ca. 12 Std.
Löslichkeit in Wasser [2]: ca. 2 µmol/l
Löslichkeit in Wasser ([2]; conversion of the µmol/l value): ≈ 0,48 mg/l
Erhöhung der Löslichkeit [3]: mehr als das Tausendfache
